Experimental data as given in ChEMBL document CHEMBL5724696, “Autophagy assay results for EUbOPEN Chemogenomics Library” (2024).
Several values for one entry are separate records, joined by “and”; a condition that tells them apart may be missing. Identical values can stand only once.

What was measured:
U2OS [1] = test: (§1) Here: values are normalized to the positive (DMSO; basel flux = defined as 100% suppression) and negative (250nM Torin1; mTOR inhibitor; maximal inducer of autophagy defined as 0% suppression) control compounds and represented as % of ER-phagy suppression. […] The impact of autophagy induction on cells is complex and depends on the affected target. […] Of note, treatment concentrations may be sub-optimal for specific compounds, leading to false negative annotations.; type: functional, Homo sapiens; conditions: Compound Concentration 1 uM, Culturing Media DMEM, 1 % Penicillin/Streptomycin, 10% Fetal bovin serum Add-On: blasticidin, Screening Media Control DMEM, 10% Fetal bovin serum Add-On: 1 µg/ml Doxycyclin, Screening Media Samples DMEM
U2OS [2] = test: as §1; type: functional, Homo sapiens; conditions: Compound Concentration 1 uM, Culturing Media DMEM, 1 % Penicillin/Streptomycin, 10% Fetal bovin serum Add-On: blasticidin, Screening Media Control DMEM, 10% Fetal bovin serum Add-On: 1 µg/ml Doxycyclin, Screening Media Samples DMEM; remark: listed apart in the source
[3] = Timepoint 12 hours, 10% Fetal bovin serum Add-On: 1 µg/ml Doxycyclin 250nM Torin1
[4] = Timepoint 24 hours, 10% Fetal bovin serum Add-On: 1 µg/ml Doxycyclin 250nM Torin1
[5] = Timepoint 36 hours, 10% Fetal bovin serum Add-On: 1 µg/ml Doxycyclin 250nM Torin1
[6] = Timepoint 54 hours, 10% Fetal bovin serum Add-On: 1 µg/ml Doxycyclin 250nM Torin1
[7] = Timepoint 60 hours, 10% Fetal bovin serum Add-On: 1 µg/ml Doxycyclin 250nM Torin1
[8] = Timepoint 12 hours, 10% Fetal bovin serum Add-On: 1 µg/ml Doxycyclin 250nM Torin1, 12 h, 1 µM
[9] = Timepoint 24 hours, 10% Fetal bovin serum Add-On: 1 µg/ml Doxycyclin 250nM Torin1, 24 h, 1 µM
[10] = Timepoint 36 hours, 10% Fetal bovin serum Add-On: 1 µg/ml Doxycyclin 250nM Torin1, 36 h, 1 µM

Row | Compound | ER-phagy suppression (U2OS [1]; [3]) | ER-phagy suppression (U2OS [1]; [4]) | ER-phagy suppression (U2OS [1]; [5]) | ER-phagy suppression (U2OS [1]; [6]) | ER-phagy suppression (U2OS [2]; [3]) | ER-phagy suppression (U2OS [2]; [4]) | ER-phagy suppression (U2OS [2]; [5]) | ER-phagy suppression (U2OS [2]; [7]) | ER-phagy suppression (U2OS [1]; [8]) | ER-phagy suppression (U2OS [1]; [9]) | ER-phagy suppression (U2OS [1]; [10]) | ER-phagy suppression (U2OS [1]; Timepoint 54 hours, 10% Fetal bovin serum Add-On: 1 µg/ml Doxycyclin 250nM Torin1, 54 h, 1 µM) | ER-phagy suppression (U2OS [2]; [8]) | ER-phagy suppression (U2OS [2]; [9]) | ER-phagy suppression (U2OS [2]; [10]) | ER-phagy suppression (U2OS [2]; Timepoint 60 hours, 10% Fetal bovin serum Add-On: 1 µg/ml Doxycyclin 250nM Torin1, 60 h, 1 µM)
1 | C[C@@H](NC(=O)Nc1cc2[nH]ncc2c(CO)n1)c1ccccc1 [ERKi] | 6.504% | -3.07% | -4.694% | -0.09872% | -20.6264% | 1.384% | -7.522% | -12.4094% | – | – | – | – | – | – | – | –
2 | CN(C)CCCn1cc(C2=C(c3c[nH]c4ccccc34)C(=O)NC2=O)c2ccccc21 [GF-109203] | 134.318% | 101.39% | 90.0252% | 89.0171% | 176.072% | 134.347% | 114.591% | 104.135% | – | – | – | – | – | – | – | –
3 | O=C(O)c1ccc(-c2c[nH]c3ncc(-c4ccccc4)cc23)cc1C1CCCC1 [GSK-650394] | 10.3251% | -3.71% | -12.9295% | -11.6174% | -3.529% | -12.5069% | 3.383% | 9.397% | – | – | – | – | – | – | – | –
4 | O=c1cc(-c2cccc3c2Sc2ccccc2S3)oc(N2CCOCC2)c1 [KU-55933] | 6.867% | -4.052% | -12.4961% | -6.9587% | 55.4841% | 58.138% | 50.8459% | 57.1444% | – | – | – | – | – | – | – | –
5 | Cc1cnc(-c2cnc(NCCNc3ccc(C#N)cn3)nc2-c2ccc(Cl)cc2Cl)[nH]1 [LADUVIGLUSIB] | 16.4928% | 17.774% | 23.5271% | 35.0421% | 40.8879% | 29.9628% | 22.9027% | 26.8731% | – | – | – | – | – | – | – | –
6 | O=C(O)[C@]1(Cc2cccc(Nc3nccs3)n2)CC[C@@H](Oc2cccc(Cl)c2F)CC1 [MK-5108] | – | – | – | – | – | – | – | – | -21.8455% and -0.3871% | -36.5962% and -17.27% | -35.461% and -24.0375% | -31.7232% and -12.4423% | 0.5036% and -6.3832% | -3.155% and -11.7886% | -0.3659% and -12.8084% | 7.072% and -14.3125%
7 | C[C@@H]1CN(c2cc(-c3nn(C)c4ccc(OC5(C)CC5)cc34)ncn2)C[C@H](C)O1 [MLi-2-NC] | 6.526% | -15.2571% | -21.814% | -27.1974% | 30.6608% | 32.7197% | 14.6999% | 6.822% | – | – | – | – | – | – | – | –
8 | C[C@@H]1CN(c2cc(-c3n[nH]c4ccc(OC5(C)CC5)cc34)ncn2)C[C@H](C)O1 [MLi-2] | 2.807% | -15.8401% | -22.331% | -20.0591% | 9.792% | 2.978% | -16.0797% | -15.9794% | – | – | – | – | – | – | – | –
9 | Cc1ccc(-c2cnc([C@@]3(O)CC[C@H](C(=O)O)C(C)(C)C3)s2)cc1Nc1cccc(C(F)(F)F)n1 [MRL-SYKi-NC] | -2.6288% | -19.3711% | -27.7592% | -26.2542% | -10.2062% | -4.2474% | -12.4056% | -6.238% | – | – | – | – | – | – | – | –
10 | Cc1cc(Nc2nccc(C)n2)cc(-c2cnc([C@@]3(O)CC[C@H](C(=O)O)C(C)(C)C3)s2)c1 [MRL-SYKi] | -2.1095% | -20.7857% | -24.9988% | -19.5267% | -8.621% | -15.4814% | -12.3884% | -21.2275% | – | – | – | – | – | – | – | –
11 | CN(c1ccnc(CNc2nc(Nc3ccc4c(c3)CC(=O)N4)ncc2C(F)(F)F)n1)S(C)(=O)=O [PF-00911705] | 20.0554% | 26.0373% | 39.3297% | 54.466% | 7.113% | 19.7718% | 14.8623% | 9.977% | – | – | – | – | – | – | – | –
12 | CC(=O)NCC(=O)N1[C@@H]2CC[C@H]1c1ccc(Nc3ncc(C(F)(F)F)c(NC4CCC4)n3)cc12 [PF-03814735] | -4.576% | -22.3849% | -35.8376% | -44.2787% | 2.1297% | 18.4214% | 21.3987% | 29.5902% | – | – | – | – | – | – | – | –
13 | Cn1cnc2c(F)c(Nc3ccc(Br)cc3Cl)c(C(=O)NOCCO)cc21 [SELUMETINIB] | -10.3683% | 3.869% | 4.29% | 11.1979% | 8.54% | 20.3816% | 25.3525% | 22.2273% | – | – | – | – | – | – | – | –
14 | Cn1cc(-c2ccc3nnc(Sc4ccc5ncccc5c4)n3n2)cn1 [SGX-523] | -11.2391% | -26.6862% | -36.424% | -40.7928% | 6.2538% | 0.9511% | 4.373% | 11.7711% | – | – | – | – | – | – | – | –
15 | O=C(O)c1ccc2c(c1)nc(Nc1cccc(Cl)c1)c1ccncc12 [SILMITASERTIB] | 22.7695% | 17.6388% | 22.3356% | 12.8536% | -10.7244% | -5.006% | 5.808% | 11.5407% | – | – | – | – | – | – | – | –
16 | Nc1c(C(=O)NCc2ccc(C(=O)NCCCC3CCCCC3)cc2)cnn1-c1ccccc1 [SR-318] | 18.9481% | 11.0125% | 12.9949% | 20.6922% | -4.749% | -10.9122% | -18.8313% | -35.2993% | – | – | – | – | – | – | – | –
17 | CN1CCN(C(=O)C(C)(C)c2ccc(C(=O)Nc3cn4cc(-c5cc(C(C)(C)C)cc(C(C)(C)C)c5)ccc4n3)cc2)CC1 [T3-CLK-N] | -1.207% | -16.3306% | -17.7073% | -17.4198% | 2.466% | 0.7117% | -6.9152% | -11.2006% | – | – | – | – | – | – | – | –
18 | CN1CCN(C(=O)C(C)(C)c2ccc(C(=O)Nc3cn4cc(-c5ccncc5)ccc4n3)cc2)CC1 [T3-CLK] | 58.6484% | 70.9328% | 70.8309% | 76.3625% | 46.4649% | 79.2605% | 82.4738% | 83.9667% | – | – | – | – | – | – | – | –
